# pIC50: −log10 of the molar value.
# Tested on: HT-29 cells
# Test: HT-29 necroptosis cell viability assay (TNF-α/SMAC mimetic/zVAD-FMK, CellTiter-Glo)
# Format: cell-based
# Conditions: Homo sapiens, HT-29, HT-29 cells, necroptosis induced by TNF-α/SMAC mimetic/zVAD-FMK, CellTiter-Glo; read-out: Activity (IC50 class)
# Outline: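 Necroptosis was triggered by TNF-α (10 ng/ml), SMAC mimetic (6 μM) and zVAD-FMK (10 μM) in serum-free medium during 20 h compound exposure (10 concentrations, threefold steps) of HT-29 cells. IC50 from duplicate dose-responses uses CellTiter-Glo ATP luminescence as viability read-out.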
row,Structure (SMILES),pIC50
1,"COc1cc(Oc2ccc(-n3ncn(Cc4c(F)cccc4F)c3=O)cc2)ccn1 [Example 661, 4-(2,6-difluorobenzyl)-2-(4-((2-methoxypyridin-4-yl)oxy)phenyl)-2,4-dihydro-3H-1,2,4-triazol-3-one]",6.00 to 7.00
2,"COC(=O)c1nc(C)c(Oc2ncc(-n3ncn(Cc4c(F)cccc4F)c3=O)cc2F)s1 [Example 646, methyl 5-((5-(4-(2,6-difluorobenzyl)-5-oxo-4,5-dihydro-1H-1,2,4-triazol-1-yl)-3-fluoropyridin-2-yl)oxy)-4-methylthiazole-2-carboxylate]",> 7.00
3,"N#CC1CC(Oc2ncccc2Cc2ccc(-n3ncn(Cc4c(F)cccc4F)c3=O)cc2)C1 (stereo not shown) [Example 684, 3-((3-(4-(4-(2,6-difluorobenzyl)-5-oxo-4,5-dihydro-1H-1,2,4-triazol-1-yl)benzyl)pyridin-2-yl)oxy)cyclobutane-1-carbonitrile]",6.00 to 7.00
4,"CN(C)c1ccccc1Oc1ccc(-n2nc(Cl)n(Cc3ccccc3)c2=O)cc1 [Example 677, 4-benzyl-5-chloro-2-(4-(2-(dimethylamino)phenoxy)phenyl)-2,4-dihydro-3H-1,2,4-triazol-3-one]",6.00 to 7.00
5,"CCOC1CN(c2ncc(F)c(Oc3ccc(-n4ncn(Cc5c(F)cccc5F)c4=O)cc3)c2F)C1 [Example 674, 4-(2,6-difluorobenzyl)-2-(4-((2-(3-ethoxyazetidin-1-yl)-3,5-difluoropyridin-4-yl)oxy)phenyl)-2,4-dihydro-3H-1,2,4-triazol-3-one]",> 7.00

# Same assay, conditions: Homo sapiens, HT-29, HT-29 necroptosis cell viability assay; class symbols for IC50; read-out: Activity
row,Structure (SMILES),pIC50
1,"O=C1CC(n2ncn(Cc3ccccc3)c2=O)CCN1Cc1ccccc1 (stereo not shown) [Example 522, 1-benzyl-4-(4-benzyl-5-oxo-4,5-dihydro-1H-1,2,4-triazol-1-yl)piperidin-2-one]",< 5.00
2,"COC(=O)c1cnc(Oc2ccc(-n3ncn(Cc4c(F)cccc4F)c3=O)cc2F)n1C [Example 173, methyl 2-(4-(4-(2,6-difluorobenzyl)-5-oxo-4,5-dihydro-1H-1,2,4-triazol-1-yl)-2-fluorophenoxy)-1-methyl-1H-imidazole-5-carboxylate]",6.00 to 7.00
3,"Cc1nc(CC#N)sc1Oc1ccc(-n2ncn(Cc3c(F)cccc3F)c2=O)cc1F [Example 155, 2-(5-(4-(4-(2,6-difluorobenzyl)-5-oxo-4,5-dihydro-1H-1,2,4-triazol-1-yl)-2-fluorophenoxy)-4-methylthiazol-2-yl)acetonitrile]",> 7.00
4,"Cc1nc(C#N)c(Oc2ccc(-n3ncn(Cc4c(F)cccc4F)c3=O)cc2F)s1 [Example 120, 5-(4-(4-(2,6-difluorobenzyl)-5-oxo-4,5-dihydro-1H-1,2,4-triazol-1-yl)-2-fluorophenoxy)-2-methylthiazole-4-carbonitrile]",> 7.00
5,"Cc1nccn1Cc1ccc(-n2ncn(Cc3c(F)cccc3F)c2=O)cc1 [Example 187, 4-(2,6-difluorobenzyl)-2-(4-((2-methyl-1H-imidazol-1-yl)methyl)phenyl)-2,4-dihydro-3H-1,2,4-triazol-3-one]",6.00 to 7.00
6,"CCOC(=O)c1nn(Cc2ccc(-n3ncn(Cc4c(F)cccc4F)c3=O)cc2F)c(C)c1C [Example 202, ethyl 1-(4-(4-(2,6-difluorobenzyl)-5-oxo-4,5-dihydro-1H-1,2,4-triazol-1-yl)-2-fluorobenzyl)-4,5-dimethyl-1H-pyrazole-3-carboxylate]",> 7.00
7,"Cc1cc(C#N)c(C)n1Cc1ccc(-n2ncn(Cc3c(F)cccc3F)c2=O)cc1F [Example 124, 1-(4-(4-(2,6-difluorobenzyl)-5-oxo-4,5-dihydro-1H-1,2,4-triazol-1-yl)-2-fluorobenzyl)-2,5-dimethyl-1H-pyrrole-3-carbonitrile]",> 7.00
8,"Cc1ncsc1Oc1ccc(-n2ncn(Cc3cc(F)ccc3F)c2=O)cc1F [Example 563, 4-(2,5-difluorobenzyl)-2-(3-fluoro-4-((4-methylthiazol-5-yl)oxy)phenyl)-2,4-dihydro-3H-1,2,4-triazol-3-one]",> 7.00
9,"Cc1nc(CC2COC2)sc1Oc1ccc(-n2ncn(Cc3c(F)cccc3F)c2=O)cc1 [Example 552, 4-(2,6-difluorobenzyl)-2-(4-((4-methyl-2-(oxetan-3-ylmethyl)thiazol-5-yl)oxy)phenyl)-2,4-dihydro-3H-1,2,4-triazol-3-one]",> 7.00
10,"O=c1n(Cc2c(F)cccc2F)cnn1-c1ccc(Oc2ccnc(NC3CC3)c2)cc1 [Example 523, 2-(4-((2-(cyclopropylamino)pyridin-4-yl)oxy)phenyl)-4-(2,6-difluorobenzyl)-2,4-dihydro-3H-1,2,4-triazol-3-one]",6.00 to 7.00
11,"Cc1nc(-c2ccnn2C)sc1Oc1ccc(-n2ncn(Cc3c(F)cccc3F)c2=O)cc1 [Example 544, 4-(2,6-difluorobenzyl)-2-(4-((4-methyl-2-(1-methyl-1H-pyrazol-5-yl)thiazol-5-yl)oxy)phenyl)-2,4-dihydro-3H-1,2,4-triazol-3-one]",> 7.00
12,"CC(C)(O)C#Cc1cc(Oc2ccc(-n3ncn(Cc4c(F)cccc4F)c3=O)cc2)ccn1 [Example 535, 4-(2,6-difluorobenzyl)-2-(4-((2-(3-hydroxy-3-methylbut-1-yn-1-yl)pyridin-4-yl)oxy)phenyl)-2,4-dihydro-3H-1,2,4-triazol-3-one]",6.00 to 7.00

# Same assay, conditions: Homo sapiens, HT-29, HT-29 necroptosis cell viability, IC50 class symbols; read-out: Activity
row,Structure (SMILES),pIC50
1,"CC1(C#N)CN(c2cc(Oc3ccc(-n4ncn(Cc5c(F)cccc5F)c4=O)cc3)ccn2)C1 [Example 383, 1-(4-(4-(4-(2,6-difluorobenzyl)-5-oxo-4,5-dihydro-1H-1,2,4-triazol-1-yl)phenoxy)pyridin-2-yl)-3-methylazetidine-3-carbonitrile]",> 7.00
2,"Cc1nc(N2CC(N)(C(F)F)C2)sc1Oc1ccc(-n2ncn(Cc3c(F)cccc3F)c2=O)cc1F [Example 450, 2-(4-((2-(3-amino-3-(difluoromethyl)azetidin-1-yl)-4-methylthiazol-5-yl)oxy)-3-fluorophenyl)-4-(2,6-difluorobenzyl)-2,4-dihydro-3H-1,2,4-triazol-3-one]",> 7.00
3,"CC1(C#N)CN(c2nccc(Oc3ccc(-n4ncn(Cc5c(F)cccc5F)c4=O)cc3F)c2Cl)C1 [Example 238, 1-(3-chloro-4-(4-(4-(2,6-difluorobenzyl)-5-oxo-4,5-dihydro-1H-1,2,4-triazol-1-yl)-2-fluorophenoxy)pyridin-2-yl)-3-methylazetidine-3-carbonitrile]",> 7.00
4,"O=c1n(Cc2c(F)cccc2F)cnn1-c1ccc(Oc2ccnc(N3CC4(CCO4)C3)c2)cc1 [Example 300, 4-[(2,6-difluorophenyl)methyl]-2-[4-[[2-(1-oxa-6-azaspiro[3.3]heptan-6-yl)-4-pyridyl]oxy]phenyl]-1,2,4-triazol-3-one]",6.00 to 7.00
5,"Nc1cccc(F)c1Oc1ccc(-n2ncn(Cc3c(F)cccc3F)c2=O)cc1 [Example 442, 2-(4-(2-amino-6-fluorophenoxy)phenyl)-4-(2,6-difluorobenzyl)-2,4-dihydro-3H-1,2,4-triazol-3-one]",> 7.00
6,"CC1(N)CN(c2nccc(Oc3ccc(-n4ncn(Cc5c(F)cccc5F)c4=O)cc3)c2F)C1 [Example 321, 2-(4-((2-(3-amino-3-methylazetidin-1-yl)-3-fluoropyridin-4-yl)oxy)phenyl)-4-(2,6-difluorobenzyl)-2,4-dihydro-3H-1,2,4-triazol-3-one]",> 7.00
7,"CC1(C#N)CN(c2cccnc2OCc2ccc(-n3ncn(Cc4c(F)cccc4F)c3=O)cc2)C1 [Example 286, 1-(2-((4-(4-(2,6-difluorobenzyl)-5-oxo-4,5-dihydro-1H-1,2,4-triazol-1-yl)benzyl)oxy)pyridin-3-yl)-3-methylazetidine-3-carbonitrile]",6.00 to 7.00
8,"N#CC12CC(Nc3nccc(Oc4ccc(-n5ncn(Cc6c(F)cccc6F)c5=O)cc4)c3Cl)(C1)C2 [Example 248, 3-((3-chloro-4-(4-(4-(2,6-difluorobenzyl)-5-oxo-4,5-dihydro-1H-1,2,4-triazol-1-yl)phenoxy)pyridin-2-yl)amino)bicyclo[1.1.1]pentane-1-carbonitrile]",> 7.00
9,"CC(C)(C)Nc1cc(Oc2ccc(-n3ncn(Cc4c(F)cccc4F)c3=O)cc2)ccn1 [Example 387, 2-(4-((2-(tert-butylamino)pyridin-4-yl)oxy)phenyl)-4-(2,6-difluorobenzyl)-2,4-dihydro-3H-1,2,4-triazol-3-one]",6.00 to 7.00
10,"CC1(C#N)CCN(c2nccc(Oc3ccc(-n4ncn(Cc5c(F)cccc5F)c4=O)cc3)c2F)C1 (stereo not shown) [Example 356, 1-(4-(4-(4-(2,6-difluorobenzyl)-5-oxo-4,5-dihydro-1H-1,2,4-triazol-1-yl)phenoxy)-3-fluoropyridin-2-yl)-3-methylpyrrolidine-3-carbonitrile]",> 7.00
11,"N#CC1CC(Nc2cc(Oc3ccc(-n4ncn(Cc5c(F)cccc5F)c4=O)cc3)ccn2)C1 (stereo not shown) [Example 351, 3-((4-(4-(4-(2,6-difluorobenzyl)-5-oxo-4,5-dihydro-1H-1,2,4-triazol-1-yl)phenoxy)pyridin-2-yl)amino)cyclobutane-1-carbonitrile]",6.00 to 7.00

# Same assay, conditions: Homo sapiens; HT-29 cells stimulated with TNF-α (10 ng/ml), SMAC mimetic (6 μM) and zVAD-FMK (10 μM); 20 hours; CellTiter-Glo ATP luminescence; geometric mean IC50 from 10 points; read-out: Activity
row,Structure (SMILES),pIC50
1,"Cc1nn(-c2ccc(Cc3ccccc3)cc2)c(=O)n1Cc1ccccc1 [Example 65, 4-benzyl-2-(4-benzylphenyl)-5-methyl-2,4-dihydro-3H-1,2,4-triazol-3-one]",> 7.00
2,"Cc1nc(N2CC[C@@H]2CN)sc1Oc1ccc(-n2ncn(Cc3c(F)cccc3F)c2=O)cc1 [Example 70, (R)-2-(4-((2-(2-(aminomethyl)azetidin-1-yl)-4-methylthiazol-5-yl)oxy)phenyl)-4-(2,6-difluorobenzyl)-2,4-dihydro-3H-1,2,4-triazol-3-one]",> 7.00
3,"NC(=O)c1coc(Oc2ccc(-n3nc4n(c3=O)[C@H](c3ccccc3)CC4)cc2F)n1 (single isomer, unassigned) [Example 688]",6.00 to 7.00

# — US20250179061A1 (SIRONAX LTD., priority 2022, published 2025)
